{"source": "patent US9346754B2", "about": "“Method of treating advanced non-alcoholic steatohepatitis” (priority 2014, dated 2016)", "key": {"[1]": {"tested_on": "STAM Model of Advanced Non-Alcoholic Steatohepatitis", "experiment": "F4/80 immunostaining, percentage of inflammation area in STAM mice", "type": "in vivo, C57BL/6 mice", "conditions": "for F4/80-positive area (inflammation area): mean ± SD", "procedure": "(§1) For immunohistochemistry, sections were cut from frozen liver tissues embedded in Tissue-Tek O.C.T. compound and fixed in acetone. Endogenous peroxidase activity was blocked using 0.03% H2O2 for 5 minutes, followed by incubation with Block Ace (Dainippon Sumitomo Pharma, Japan) for 10 minutes. The sections were incubated with a 200-fold dilution of anti-α-SMA (Epitomics, USA) or anti-F4/80 antibody (BMA Biomedicals, Switzerland) 1 hour at room temperature. […] For quantitative analysis of fibrosis area, inflammation area, and semi-quantification of α-SMA, bright field images of Sirius red-stained, F4/80- and α-SMA-immunostained sections were captured around the central vein using a digital camera (DFC280: Leica Microsystems, Germany) at 200-fold magnification, and the positive areas in 5 fields/section were measured using ImageJ software (National Institute of Health, USA). […] P values<0.05 were considered statistically significant. […] Results were expressed as mean±SD."}, "[2]": {"tested_on": "STAM Model of Advanced Non-Alcoholic Steatohepatitis", "experiment": "Alpha-SMA immunostaining, α-SMA-positive area in STAM mice", "type": "in vivo, C57BL/6 mice", "conditions": "for Alpha-SMA-positive area: mean ± SD", "procedure": "as §1"}, "Collagen Type 1 mRNA": {"tested_on": "Collagen Type 1 mRNA", "experiment": "Liver gene expression by quantitative RT-PCR: Collagen Type 1", "type": "in vivo, C57BL/6 mice", "procedure": "(§2) Total RNA was extracted from liver samples using RNAiso (Takara Bio, Japan) according to the manufacturer's instructions. One μg of RNA was reverse-transcribed using a reaction mixture containing 4.4 mM MgCl2 (F. Hoffmann-La Roche, Switzerland), 40 U RNase inhibitor (Toyobo, Japan), 0.5 mM dNTP (Promega, USA), 6.28 μM random hexamer (Promega), 5× first strand buffer (Promega), 10 mM dithiothreitol (Invitrogen, USA) and 200 U MMLV-RT (Invitrogen) in a final volume of 20 μL. The reaction was carried out for 1 hour at 37° C., followed by 5 minutes at 99° C. Real-time PCR was performed using real-time PCR DICE and SYBR premix Taq (Takara Bio). To calculate the relative mRNA expression level, the expression of each gene was normalized to that of reference gene 36B4 (gene symbol: Rp1p0). Information of PCR-primer sets are described in Table 1. [table] […] P values<0.05 were considered statistically significant. […] Results were expressed as mean±SD."}, "Alpha-SMA mRNA": {"tested_on": "Alpha-SMA mRNA", "experiment": "Liver gene expression by quantitative RT-PCR: Alpha-SMA", "type": "in vivo, C57BL/6 mice", "procedure": "as §2"}, "FLAP mRNA": {"tested_on": "FLAP mRNA", "experiment": "Liver gene expression by quantitative RT-PCR: FLAP", "type": "in vivo, C57BL/6 mice", "conditions": "100 mg/kg oral once daily, 8 to 12 weeks of age (MN-001-high)", "procedure": "as §2"}, "LTC4 synthase mRNA": {"tested_on": "LTC4 synthase mRNA", "experiment": "Liver gene expression by quantitative RT-PCR: LTC4 synthase", "type": "in vivo, C57BL/6 mice", "conditions": "Telmisartan 10 mg/kg oral once daily, 8 to 12 weeks of age", "procedure": "as §2"}, "[3]": {"conditions": "Telmisartan 10 mg/kg oral once daily, 8 to 12 weeks of age", "procedure": "NASH was induced in 50 male mice by a single subcutaneous injection of 200 μg streptozotocin (STZ, Sigma-Aldrich, USA) solution 2 days after birth and feeding with high fat diet (HFD, 57 kcal % fat, cat#: HFD32, CLEA Japan, Japan) after 4 weeks of age.\nMN-001 was administered at doses of 10, 30, and 100 mg/kg once daily. Telmisartan was administered at a dose of 10 mg/kg once daily.\nStatistical analyses were performed using Bonferroni Multiple Comparison Test on GraphPad Prism 4 (GraphPad Software, USA). P values<0.05 were considered statistically significant. A trend or tendency was assumed when a one-tailed t-test returned P values<0.10. Results were expressed as mean±SD.\nThe viability, clinical signs and behavior were monitored daily. Body weight was recorded before the treatment. […] The animals were sacrificed by exsanguination through direct cardiac puncture under ether anesthesia (Wako Pure Chemical Industries)."}, "[4]": {"conditions": "any doses of MN-001 (10, 30, 100 mg/kg oral once daily, 8 to 12 weeks of age)"}, "[5]": {"conditions": "10 mg/kg oral once daily, 8 to 12 weeks of age (MN-001-low n=10; Telmisartan n=9)"}, "[6]": {"conditions": "30 mg/kg oral once daily, 8 to 12 weeks of age (MN-001-middle, n=10)"}, "[7]": {"conditions": "100 mg/kg oral once daily, 8 to 12 weeks of age (MN-001-high, n=10)"}, "[8]": {"conditions": "10 mg/kg oral once daily, 8 to 12 weeks of age (MN-001-low; Telmisartan)"}, "[9]": {"conditions": "100 mg/kg oral once daily, 8 to 12 weeks of age (MN-001-high)"}, "[10]": {"conditions": "Telmisartan 10 mg/kg oral once daily, 8 to 12 weeks of age"}}, "note": "“Also recorded” adds a separate entry of the source."}
{"smiles": "CCCc1c(SCCCOc2ccc(C(C)=O)c(OCCCC(=O)O)c2CCC)ccc(C(C)=O)c1O", "note": "[MN-001]", "values": [{"measurement": "Inflammation area compared with the Vehicle group", "setting": "[1]; [4]", "result": "no significant differences"}, {"measurement": "F4/80-positive area (inflammation area)", "setting": "[1]; [5]", "result": "6.47 ± 2.67", "unit": "%"}, {"measurement": "F4/80-positive area (inflammation area)", "setting": "[1]; [6]", "result": "6.36 ± 1.59", "unit": "%"}, {"measurement": "F4/80-positive area (inflammation area)", "setting": "[1]; [7]", "result": "5.14 ± 0.89", "unit": "%"}, {"measurement": "α-SMA-positive area compared with the Vehicle group", "setting": "[2]; [8]", "result": "significantly decreased"}, {"measurement": "α-SMA-positive area compared with the Vehicle group", "setting": "[2]; 30 mg/kg oral once daily, 8 to 12 weeks of age (MN-001-middle)", "result": "no significant difference"}, {"measurement": "α-SMA-positive area compared with the Vehicle group", "setting": "[2]; [9]", "result": "significantly decreased"}, {"measurement": "Alpha-SMA-positive area", "setting": "[2]; [5]", "result": "0.45 ± 0.11", "unit": "%"}, {"measurement": "Alpha-SMA-positive area", "setting": "[2]; [6]", "result": "0.76 ± 0.19", "unit": "%"}, {"measurement": "Alpha-SMA-positive area", "setting": "[2]; [7]", "result": "0.48 ± 0.21", "unit": "%"}, {"measurement": "Collagen Type 1 mRNA expression levels compared with the Vehicle group", "setting": "Collagen Type 1 mRNA; [9]", "result": "tended to decrease"}, {"measurement": "α-SMA mRNA expression levels compared with the Vehicle group", "setting": "Alpha-SMA mRNA; [4]", "result": "no significant differences"}, {"measurement": "FLAP mRNA expression levels compared with the Vehicle group", "setting": "FLAP mRNA", "result": "tended to increase"}]}
{"smiles": "CCCc1nc2c(C)cc(-c3nc4ccccc4n3C)cc2n1Cc1ccc(-c2ccccc2C(=O)O)cc1", "note": "[Telmisartan, reference compound]", "values": [{"measurement": "Inflammation area compared with the Vehicle group", "setting": "[1]; [10]", "result": "significantly decreased; also recorded: tended to decrease"}, {"measurement": "F4/80-positive area (inflammation area)", "setting": "[1]; [5]", "result": "3.79 ± 1.60", "unit": "%"}, {"measurement": "α-SMA-positive area compared with the Vehicle group", "setting": "[2]; [8]", "result": "significantly decreased"}, {"measurement": "Alpha-SMA-positive area", "setting": "[2]; [5]", "result": "0.35 ± 0.14", "unit": "%"}, {"measurement": "Collagen Type 1 mRNA expression levels compared with the Vehicle group", "setting": "Collagen Type 1 mRNA; [10]", "result": "significantly down-regulated"}, {"measurement": "Alpha-SMA mRNA expression levels compared with the Vehicle group", "setting": "Alpha-SMA mRNA; [10]", "result": "significantly down-regulated"}, {"measurement": "LTC4 synthase mRNA expression levels compared with the Vehicle group", "setting": "LTC4 synthase mRNA", "result": "tended to decrease"}, {"measurement": "Mortality (animals found dead)", "setting": "[3]", "result": "One of the Telmisartan group was found dead on day 24"}]}
